Measured values as given in patent US20250129078A1, “ERBB2 INHIBITORS” (Cogent Biosciences, Inc., priority 2023, published 2025).
pIC50: −log10 of the molar value. Counter-ions that a name gives are not always drawn.

Key:
ErbB2 V777L = ErbB2 V777L (Homo sapiens (Human), UniProt P04626, V777L); assay: ErbB enzyme assay (CisBio HTRF-KinEASE-TK), ErbB2 V777L; assay type: biochemical
Summary of the method: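 HTRF KinEASE-TK tyrosine-kinase read-out of substrate phosphorylation after a final 1 h at ambient temperature, from the 655/620 nm emission ratio.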

EGFR WT = EGFR WT (Homo sapiens (Human), UniProt P00533); assay: ErbB enzyme assay (CisBio HTRF-KinEASE-TK), EGFR WT; assay type: biochemical; conditions: ATP at Km (25 μM), 1 h incubation
Summary of the method: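 Tyrosine kinase HTRF, 1 h RT reaction → quench (Sa-XL665/TK-Ab-Cryptate) → 1 h RT → 655/620 ratio.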

ErbB2 mutant L755S = ErbB2 mutant L755S (Homo sapiens (Human), UniProt P04626, L755S); assay: ErbB cellular phosphorylation assay (phospho-ErbB2 ELISA), HEK-293 cells expressing ErbB2 L755S; assay type: cell-based; conditions: 1 h treatment
Method: Cells were seeded in poly-D-lysine coated, 96-well plates at a density of 50,000 cells/well in complete medium (DMEM supplemented with 10% fetal bovine serum and G418) and incubated for 24 h at 37° C., 5% CO2 prior to treatment. Cells were treated with compound using three-fold dilutions at final concentrations ranging from […] for 1 h at 37° C., 5% CO2. EGFR-WT cells were stimulated with 500 ng/mL recombinant human EGF (R&D Systems, 236-EG) for an additional 5 min. After compound incubation, medium was removed from the plate, and cells were lysed in buffer containing protease and phosphatase inhibitors ([…]). Cell lysates were analyzed by enzyme-linked immunosorbent assay (ELISA). The ELISAs were performed to measure phosphorylated ErbB2 or phosphorylated EGFR levels, respectively (R&D Systems, DYC-1768, Human Phospho-ErbB2 DuoSet ELISA; DYC1095, Human Phospho-EGFR DuoSet IC ELISA) according to the manufacturer's instructions. Absorbance was measured at 450 nm using a BioTek Cytation 5 plate reader (Agilent, Santa Clara, CA) and IC50 values were calculated using a 4-parameter fit.

EGFR wild type = EGFR wild type (Homo sapiens (Human), UniProt P00533); assay: ErbB cellular phosphorylation assay (phospho-EGFR ELISA), HEK-293 cells expressing EGFR wild type, EGF stimulated; assay type: cell-based; conditions: 1 h treatment
Method: HEK-293 cells were engineered to constitutively express ErbB2 mutant L755S or EGFR wild type (constructs obtained from GenScript, Piscataway, NJ). Cells were seeded in poly-D-lysine coated, 96-well plates at a density of 50,000 cells/well in complete medium (DMEM supplemented with 10% fetal bovine serum and G418) and incubated for 24 h at 37° C., 5% CO2 prior to treatment. Cells were treated with compound using three-fold dilutions at final concentrations ranging from […] for 1 h at 37° C., 5% CO2. EGFR-WT cells were stimulated with 500 ng/mL recombinant human EGF (R&D Systems, 236-EG) for an additional 5 min. After compound incubation, medium was removed from the plate, and cells were lysed in buffer containing protease and phosphatase inhibitors ([…]). Cell lysates were analyzed by enzyme-linked immunosorbent assay (ELISA). The ELISAs were performed to measure phosphorylated ErbB2 or phosphorylated EGFR levels, respectively (R&D Systems, DYC-1768, Human Phospho-ErbB2 DuoSet ELISA; DYC1095, Human Phospho-EGFR DuoSet IC ELISA) according to the manufacturer's instructions. Absorbance was measured at 450 nm using a BioTek Cytation 5 plate reader (Agilent, Santa Clara, CA) and IC50 values were calculated using a 4-parameter fit.

ErbB2 V777L, sequence (P04626 23-1255 V777L): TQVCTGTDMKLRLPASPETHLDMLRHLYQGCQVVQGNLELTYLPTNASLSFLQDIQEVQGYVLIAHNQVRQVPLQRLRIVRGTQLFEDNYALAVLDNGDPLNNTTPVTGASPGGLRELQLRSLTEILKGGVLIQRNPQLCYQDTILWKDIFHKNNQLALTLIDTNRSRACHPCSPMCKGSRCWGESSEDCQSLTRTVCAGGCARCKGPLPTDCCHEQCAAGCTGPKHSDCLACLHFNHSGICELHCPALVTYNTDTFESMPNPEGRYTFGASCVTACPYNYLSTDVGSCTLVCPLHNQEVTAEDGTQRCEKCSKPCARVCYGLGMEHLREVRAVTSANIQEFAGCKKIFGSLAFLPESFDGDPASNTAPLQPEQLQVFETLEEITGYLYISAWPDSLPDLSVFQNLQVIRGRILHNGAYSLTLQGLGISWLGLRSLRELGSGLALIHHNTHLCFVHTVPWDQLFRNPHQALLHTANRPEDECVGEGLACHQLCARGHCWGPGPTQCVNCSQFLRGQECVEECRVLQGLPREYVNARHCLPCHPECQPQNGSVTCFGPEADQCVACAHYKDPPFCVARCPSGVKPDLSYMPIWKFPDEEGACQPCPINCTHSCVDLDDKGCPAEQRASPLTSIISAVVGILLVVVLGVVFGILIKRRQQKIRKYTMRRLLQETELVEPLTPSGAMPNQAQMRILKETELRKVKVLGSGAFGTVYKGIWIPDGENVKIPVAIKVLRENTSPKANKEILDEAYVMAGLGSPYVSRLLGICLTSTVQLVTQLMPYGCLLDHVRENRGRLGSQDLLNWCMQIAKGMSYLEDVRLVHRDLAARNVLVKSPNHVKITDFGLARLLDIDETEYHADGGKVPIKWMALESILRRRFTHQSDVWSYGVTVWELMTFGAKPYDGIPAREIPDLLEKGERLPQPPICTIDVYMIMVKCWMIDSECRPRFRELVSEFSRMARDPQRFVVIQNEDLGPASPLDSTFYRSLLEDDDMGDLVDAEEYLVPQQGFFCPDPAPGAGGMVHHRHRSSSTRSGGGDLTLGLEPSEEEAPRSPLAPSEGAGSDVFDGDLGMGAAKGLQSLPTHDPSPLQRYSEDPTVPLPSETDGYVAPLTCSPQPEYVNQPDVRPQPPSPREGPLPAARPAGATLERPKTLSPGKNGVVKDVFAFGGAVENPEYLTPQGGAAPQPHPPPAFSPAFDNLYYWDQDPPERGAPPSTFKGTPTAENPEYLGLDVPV
EGFR WT, sequence (P00533 25-1210): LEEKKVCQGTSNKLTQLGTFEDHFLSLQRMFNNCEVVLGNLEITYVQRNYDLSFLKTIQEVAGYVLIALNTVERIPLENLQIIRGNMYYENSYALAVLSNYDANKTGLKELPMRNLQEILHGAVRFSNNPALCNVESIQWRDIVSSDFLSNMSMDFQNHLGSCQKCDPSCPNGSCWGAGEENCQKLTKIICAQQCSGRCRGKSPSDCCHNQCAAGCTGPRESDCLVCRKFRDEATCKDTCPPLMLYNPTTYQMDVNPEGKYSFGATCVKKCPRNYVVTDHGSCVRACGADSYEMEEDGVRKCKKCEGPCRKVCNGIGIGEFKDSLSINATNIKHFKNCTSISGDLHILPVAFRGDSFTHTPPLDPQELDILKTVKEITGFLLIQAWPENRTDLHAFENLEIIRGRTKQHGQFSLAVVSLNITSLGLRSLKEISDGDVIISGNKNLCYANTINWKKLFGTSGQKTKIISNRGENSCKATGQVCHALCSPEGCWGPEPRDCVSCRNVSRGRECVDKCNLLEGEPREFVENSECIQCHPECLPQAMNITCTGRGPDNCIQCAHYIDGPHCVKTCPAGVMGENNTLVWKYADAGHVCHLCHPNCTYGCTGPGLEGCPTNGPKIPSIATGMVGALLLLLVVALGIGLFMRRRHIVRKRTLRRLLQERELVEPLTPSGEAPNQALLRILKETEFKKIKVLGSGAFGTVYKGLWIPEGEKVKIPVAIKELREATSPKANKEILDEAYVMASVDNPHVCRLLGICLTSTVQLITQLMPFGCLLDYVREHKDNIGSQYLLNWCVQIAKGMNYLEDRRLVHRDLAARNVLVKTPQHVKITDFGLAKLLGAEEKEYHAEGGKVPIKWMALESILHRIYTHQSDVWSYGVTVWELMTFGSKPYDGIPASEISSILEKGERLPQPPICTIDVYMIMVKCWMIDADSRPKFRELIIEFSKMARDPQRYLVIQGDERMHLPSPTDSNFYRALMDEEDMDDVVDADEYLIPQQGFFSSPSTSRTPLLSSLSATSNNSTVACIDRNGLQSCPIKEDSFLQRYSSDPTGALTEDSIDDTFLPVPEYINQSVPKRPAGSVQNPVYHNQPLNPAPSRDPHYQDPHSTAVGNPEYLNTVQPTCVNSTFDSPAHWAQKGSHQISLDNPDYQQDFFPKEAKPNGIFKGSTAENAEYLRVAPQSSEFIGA
EGFR wild type, sequence (P00533 25-1210): as above
ErbB2 mutant L755S, sequence (P04626 23-1255 L755S): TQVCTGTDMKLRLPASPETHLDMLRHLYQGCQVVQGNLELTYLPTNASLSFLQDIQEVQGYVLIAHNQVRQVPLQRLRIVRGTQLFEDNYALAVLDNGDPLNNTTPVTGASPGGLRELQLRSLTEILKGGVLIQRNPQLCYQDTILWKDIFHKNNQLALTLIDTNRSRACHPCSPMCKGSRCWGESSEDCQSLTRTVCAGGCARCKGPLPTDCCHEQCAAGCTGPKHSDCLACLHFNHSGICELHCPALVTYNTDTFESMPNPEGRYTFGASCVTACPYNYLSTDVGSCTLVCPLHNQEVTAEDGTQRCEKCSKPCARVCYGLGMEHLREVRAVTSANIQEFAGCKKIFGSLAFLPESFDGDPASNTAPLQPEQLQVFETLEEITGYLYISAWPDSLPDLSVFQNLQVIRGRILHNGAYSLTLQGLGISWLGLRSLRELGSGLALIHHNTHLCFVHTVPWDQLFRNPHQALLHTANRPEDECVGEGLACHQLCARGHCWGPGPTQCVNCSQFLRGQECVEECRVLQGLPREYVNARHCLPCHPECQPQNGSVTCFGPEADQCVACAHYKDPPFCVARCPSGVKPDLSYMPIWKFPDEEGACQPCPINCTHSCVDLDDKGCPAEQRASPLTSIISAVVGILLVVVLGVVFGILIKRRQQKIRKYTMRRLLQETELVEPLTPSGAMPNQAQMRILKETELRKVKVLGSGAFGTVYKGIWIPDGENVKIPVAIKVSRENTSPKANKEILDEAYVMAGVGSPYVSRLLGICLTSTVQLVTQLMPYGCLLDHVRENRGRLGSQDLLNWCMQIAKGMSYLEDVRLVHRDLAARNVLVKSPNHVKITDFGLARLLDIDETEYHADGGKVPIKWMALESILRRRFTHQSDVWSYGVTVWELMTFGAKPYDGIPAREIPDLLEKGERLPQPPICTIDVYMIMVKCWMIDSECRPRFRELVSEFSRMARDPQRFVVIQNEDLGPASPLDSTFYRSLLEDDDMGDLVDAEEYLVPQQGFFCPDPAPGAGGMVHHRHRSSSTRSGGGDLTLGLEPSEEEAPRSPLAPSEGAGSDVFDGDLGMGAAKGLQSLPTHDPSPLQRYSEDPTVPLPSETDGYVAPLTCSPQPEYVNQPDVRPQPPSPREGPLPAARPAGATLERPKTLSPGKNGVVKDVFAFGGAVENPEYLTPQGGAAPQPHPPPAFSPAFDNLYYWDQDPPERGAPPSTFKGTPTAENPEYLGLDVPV

pIC50 (ErbB2 V777L)	pIC50 (EGFR WT)	pIC50 (ErbB2 mutant L755S)	pIC50 (EGFR wild type)	Compound
7.00 to 7.30	6.30 to 7.00	6.30 to 7.00	≤ 5.30	C=CC(=O)N1CCN(c2ncc3ncnc(Nc4ccc(Oc5ccc6c(c5)nnn6C)c(C)c4)c3n2)CC1(C)C [Compound 3, 1-(2,2-dimethyl-4-(8-((3-methyl-4-((1-methyl-1H-benzo[d][1,2,3]triazol-5-yl)oxy)phenyl)amino)pyrimido[5,4-d]pyrimidin-2-yl)piperazin-1-yl)prop-2-en-1-one]
6.00 to 6.30	≤ 6.00	6.00 to 6.30	≤ 5.30	C=CC(=O)N1CCC2(C1)CN(c1ncc3ncnc(Nc4ccc(Oc5ccc6c(c5)nnn6C)c(C)c4)c3n1)C2 [Compound 15, 1-(2-(8-((3-methyl-4-((1-methyl-1H-benzo[d][1,2,3]triazol-5-yl)oxy)phenyl)amino)pyrimido[5,4-d]pyrimidin-2-yl)-2,6-diazaspiro[3.4]octan-6-yl)prop-2-en-1-one]
	> 7.30		5.30 to 6.00	C=CC(=O)N1CCN(c2ncc3ncnc(Nc4ccc(Oc5ccc6c(c5)ncn6C(F)F)c(C)c4F)c3n2)CC1 [Compound 21, 1-(4-(8-((4-((1-(difluoromethyl)-1H-benzo[d]imidazol-5-y1)oxy)-2-fluoro-3-methylphenyl)amino)pyrimido[5,4-d]pyrimidin-2-yl)piperazin-1-yl)prop-2-en-1-one]
	6.30 to 7.00		≤ 5.30	C=CC(=O)N1CCN(c2ncc3ncnc(Nc4ccc(Oc5ccc6c(c5)nnn6C)c(C)c4)c3n2)C[C@@H]1CO [Compound 25, (R)-1-(2-(hydroxymethyl)-4-(8-((3-methyl-4-((1-methyl-1H-benzo[d][1,2,3]triazol-5-yl)oxy)phenyl)amino)pyrimido[5,4-d]pyrimidin-2-y1)piperazin-1-yl)prop-2-en-1-one]
7.00 to 7.30	> 7.30	> 7.00	≤ 5.30	C=CC(=O)N1CCN(c2ncc3ncnc(Nc4ccc(Oc5cc(F)c6c(c5)nnn6C)c(C)c4F)c3n2)CC1 [Compound 33, 1-(4-(8-((2-fluoro-4-((7-fluoro-1-methyl-1H-benzo[d][1,2,3]triazol-5-yl)oxy)-3-methylphenyl)amino)pyrimido [5,4-d]pyrimidin-2-yl)piperazin-1-yl)prop-2-en-1-one]
6.30 to 7.00	6.00 to 6.30	6.30 to 7.00	≤ 5.30	C=CC(=O)N1CCN(c2ncc3ncnc(Nc4cc(C)c(Oc5ccc6c(c5)ncn6C(F)F)cc4OC)c3n2)C[C@H]1C [Compound 39, (R)-1-(4-(8-((4-((1-(difluoromethyl)-1H-benzo[d]imidazol-5-yl)oxy)-2-methoxy-5-methylphenyl)amino)pyrimido[5,4-d]pyrimidin-2-y1)-2-methylpiperazin-1-yl)prop-2-en-1-one]
	6.30 to 7.00		≤ 5.30	C=CC(=O)N1C2CCC1CN(c1ncc3ncnc(Nc4cc(C)c(Oc5cc(F)c6c(c5)ncn6C)cc4OC)c3n1)C2 [Compound 42, 1-(3-(8-((4-((7-fluoro-1-methyl-1H-benzo[d]imidazol-5-yl)oxy)-2-methoxy-5-methylphenyl)amino)pyrimido[5,4-d]pyrimidin-2-y1)-3,8-diazabicyclo[3.2.1]octan-8-yl)prop-2-en-1-one]
6.30 to 7.00	> 7.30	6.30 to 7.00	≤ 5.30	C=CC(=O)N1CCN(c2ncc3ncnc(Nc4ccc(Oc5cc(F)c6c(c5)nnn6C)c(C)c4F)c3n2)C[C@H]1C [Compound 49, (R)-1-(4-(8-((2-fluoro-4-((7-fluoro-1-methyl-1H-benzo[d][1,2,3]triazol-5-yl)oxy)-3-methylphenyl)amino)pyrimido[5,4-d]pyrimidin-2-yl)-2-methylpiperazin-1-yl)prop-2-en-1-one]
6.30 to 7.00	6.00 to 6.30	6.30 to 7.00	≤ 5.30	CC#CC(=O)N1CCN(c2ncc3ncnc(Nc4ccc(Oc5ccc6c(c5)nnn6C)c(C)c4)c3n2)CC1 [Compound 55, 1-(4-(8-((3-methyl-4-((1-methyl-1H-benzo[d][1,2,3]triazol-5-yl)oxy)phenyl)amino)pyrimido [5,4-d]pyrimidin-2-yl)piperazin-1-yl) but-2-yn-1-one]
	6.30 to 7.00		5.30 to 6.00	C=CC(=O)N1C2CCC1CN(c1ccc3ncnc(Nc4ccc(Oc5ccc6c(c5)nnn6C)c(C)c4)c3n1)C2 [Compound 70, 1-(3-(4-((3-methyl-4-((1-methyl-1H-benzo[d][1,2,3]triazol-5-yl)oxy)phenyl)amino)pyrido[3,2-d]pyrimidin-6-yl)-3,8-diazabicyclo[3.2.1]octan-8-yl)prop-2-en-1-one]
	6.30 to 7.00		≤ 5.30	C=CC(=O)N1CCN(c2ccc3ncnc(Nc4ccc(Oc5ccc6c(c5)nnn6C)c(C)c4)c3n2)[C@@H](C)C1 [Compound 90, (S)-1-(3-methyl-4-(4-((3-methyl-4-((1-methyl-H-benzo[d][1,2,3]triazol-5-yl)oxy)phenyl)amino)pyrido[3,2-d]pyrimidin-6-yl)piperazin-1-yl)prop-2-en-1-one 2,2,2-trifluoroacetate]
7.00 to 7.30	6.30 to 7.00	> 7.00	≤ 5.30	C=CC(=O)N1C2CC1CN(c1ccc3ncnc(Nc4ccc(Oc5ccc6c(c5)nnn6C)c(C)c4)c3n1)C2 [Compound 93, 1-(3-(4-((3-methyl-4-((1-methyl-1H-benzo[d][1,2,3]triazol-5-yl)oxy)phenyl)amino)pyrido[3,2-d]pyrimidin-6-yl)-3,6-diazabicyclo[3.1.1]heptan-6-yl)prop-2-en-1-one]
	> 7.30		≤ 5.30	C=CC(=O)N1CCN(c2ccc3ncnc(Nc4ccc(Oc5ccc6c(c5)nnn6C)c(C)c4F)c3n2)CC1 [Compound 95, 1-(4-(4-((2-fluoro-3-methyl-4-((1-methyl-1H-benzo[d][1,2,3]triazol-5-yl)oxy)phenyl)amino)pyrido[3,2-d]pyrimidin-6-yl)piperazin-1-yl)prop-2-en-1-one]
6.30 to 7.00	6.30 to 7.00	6.30 to 7.00	≤ 5.30	C=CC(=O)N1CCN(c2ncc3ncnc(Nc4ccc(Oc5ccn6ncnc6c5)c(C)c4F)c3c2F)CC1 [Compound 101, 1-(4-(4-((4-([1,2,4]triazolo[1,5-a]pyridin-7-yloxy)-2-fluoro-3-methylphenyl)amino)-5-fluoropyrido[3,4-d]pyrimidin-6-yl)piperazin-1-yl)prop-2-en-1-one]
6.30 to 7.00	6.00 to 6.30	6.30 to 7.00	≤ 5.30	C=CC(=O)N1CCN(c2ncc3ncnc(Nc4ccc(Oc5ccc6c(c5)nnn6C)c(C)c4)c3c2OC)CC1 [Compound 105]
7.00 to 7.30		6.30 to 7.00	≤ 5.30	C=CC(=O)N1CCC(Sc2ncc3ncnc(Nc4ccc(Oc5ccc6c(c5)ncn6C)c(C)c4F)c3n2)CC1 [Compound 107, 1-(4-((8-((2-fluoro-3-methyl-4-((1-methyl-1H-benzo[d]imidazol-5-yl)oxy)phenyl)amino)pyrimido[5,4-d]pyrimidin-2-yl)thio)piperidin-1-yl)prop-2-en-1-one]
	6.30 to 7.00		≤ 5.30	C=CC(=O)N1CC=C(c2ccc3ncnc(Nc4ccc(Oc5ccc6c(c5)nnn6C)c(C)c4)c3n2)CC1 [Compound 109, 1-(4-(4-((3-methyl-4-((1-methyl-1H-benzo[d][1,2,3]triazol-5-yl)oxy)phenyl)amino)pyrido[3,2-d]pyrimidin-6-yl)-3,6-dihydropyridin-1(2H)-yl)prop-2-en-1-one trifluoroacetate]
	7.00 to 7.30		≤ 5.30	C=CC(=O)N1CC=C(c2ccc3ncnc(Nc4ccc(Oc5ccc6c(c5)nnn6C)c(C)c4)c3n2)C1 [Compound 110, 1-(3-(4-((3-methyl-4-((1-methyl-1H-benzo[d][1,2,3]triazol-5-yl)oxy)phenyl)amino)pyrido[3,2-d]pyrimidin-6-yl)-2,5-dihydro-1H-pyrrol-1-yl)prop-2-en-1-one]
